The target in one data set is Factor XIa (Homo sapiens (Human), UniProt P03951). As to the kind of experiment: Factor XIa enzyme inhibition assay (dose response, fluorogenic AMC substrate). It is filed as biochemical. To be noted: read-out: hFXIa IC50. The procedure, abridged:
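Human FXIa at 0.25 nM final with 50 μM final PyroGlu-Pro-Arg-AMC in 20 mM Hepes pH 7.4, 150 mM NaCl, 0.02% Tween 20. Two-fold serial compound dilutions; fluorescence read every minute for 30 min at 30° C. IC50 from a four-parameter Hill fit.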

The nature of data set [1]: Plasma protein binding by equilibrium dialysis. It is filed as in vitro ADME. The settings on record: both sexes, pH 7.4, pooled human plasma, 4 hours at 37° C., read-out: PPB (%). As to the method:
The following procedure was used to determine the plasma protein binding of a test compound in pooled plasma from human (mixed gender) via equilibrium dialysis in a 96-well plate format. The dialysate compartment was loaded with phosphate-buffered saline (pH 7.4) and the sample side was loaded with plasma spiked with the test compound at a concentration of 10 μM. After loading, samples were covered and incubated for 4 hours at 37° C. After incubation, each compartment was sampled, diluted with acetonitrile/buffer and centrifuged. The supernatants were analyzed by HPLC-MS/MS. The analyte peak areas obtained from HPLC-MS/MS analysis of each sample were used to calculate protein binding according to the following equation (Equation 4):
[formula] where: AREAp=Peak area of analyte in protein matrix; AREAb=Peak area of analyte in buffer.
The amount measured in the plasma compartment included both free and bound drug, while that on the buffer side represented free drug only; the differences were used to calculate the percentage plasma protein bound. Three reference compounds were tested in each assay: acebutolol, quinidine and warfarin.
(In general: In equilibrium dialysis only unbound substance equilibrates across the membrane.)

The nature of data set [2]: Caco-2 cell permeability assay. It is filed as in vitro ADME, human. To be noted: human, 37° C.; for Papp A→B at 60 min, 10 μM: Caco-2, apical to basolateral; for Papp B→A at 40 min, 10 μM: Caco-2, basolateral to apical. How it is done:
The following procedure was used to determine the ability of a test compound to cross Caco-2 cells (human intestinal epithelial cells derived from a colorectal adenocarcinoma). The cells were seeded at 1×10^5 cells/cm^2 in 96-well Multiscreen™ plates (Millipore). Permeability assays were performed with the cells at days 21-25 post-seeding. Cells are typically used for 15 consecutive passages in culture.
This assay can be performed in either the apical to basolateral (A-B) or basolateral to apical (B-A) direction. The test compound was prepared at 10 μM in HBSS-MES (pH 6.5) or HBSS-HEPES (pH 7.4) with a final DMSO concentration of 1%. The working solution was then centrifuged and the supernatant added to the donor side. The assay plate was incubated at 37° C. with gentle shaking for 60 min or 40 min for the A-B or B-A assay, respectively. Samples were aliquoted from the donor side at time zero and the end point, and from the receiver side at the end point.
Reference compounds, propranolol (highly permeable), labetalol (moderately permeable), ranitidine (poorly permeable), and colchicine (P-glycoprotein substrate) were included in each assay.
Samples are analyzed by HPLC-MS/MS using selected reaction monitoring. The HPLC system consists of a binary LC pump with autosampler, a C-18 column, and a gradient.
The apparent permeability coefficient (Papp) of the test compound (Equation 2) and its recovery (Equation 3) are calculated as follows:
[formula] wherein A is the surface area of the cell monolayer (0.11 cm^2), C is concentration of the test compound expressed as peak area, D denotes donor, and R is receiver. “0”, “mid,” and “end” denote time at zero, mid-point, and end of the incubation, respectively. Δt is the incubation time. V is the volume of the donor or receiver.
This is most likely due to non-specific binding or degradation.
For orientation: Caco-2 monolayers are a common model of the intestinal barrier.

Another data set concerns the target Factor Xa (Homo sapiens (Human), UniProt P00742). Kind of data set: Dose response assay for protease inhibitors: Factor Xa. The format is biochemical. The settings on record: selectivity, Factor Xa over Factor XIa. The procedure, abridged: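 Fluorogenic AMC-peptide cleavage in 20 mM Hepes pH 7.4, 150 mM NaCl, 0.02% Tween 20; 100 μM stock substrate dilution (Glp-Pro-Arg-AMC for thrombin/trypsin; Pro-Phe-Arg-AMC or Boc-Leu-Gly-Arg-AMC for Factor Xa). Enzyme diluted to 0.5 nM, added last to two-fold compound series; kinetic read at 30° C, 30 min (Factor Xa 60 min); IC50 fitted.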

Broadly, the IC50 is the concentration that inhibits the measured activity by half. For orientation: Papp A→B means the apparent permeability from the apical to the basolateral side of a cell layer. As usually defined, the Papp B→A is how fast a substance crosses the layer from the basolateral side.

Factor Xa, sequence (P00742 235-488): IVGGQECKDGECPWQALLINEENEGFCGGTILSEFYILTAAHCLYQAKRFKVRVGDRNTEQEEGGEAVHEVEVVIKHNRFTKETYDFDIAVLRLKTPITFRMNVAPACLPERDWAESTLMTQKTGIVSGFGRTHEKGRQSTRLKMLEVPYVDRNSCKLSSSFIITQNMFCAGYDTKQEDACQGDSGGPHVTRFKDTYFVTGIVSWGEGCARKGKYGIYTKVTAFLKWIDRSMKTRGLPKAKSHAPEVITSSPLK
Factor Xa, sequence (P00742 41-179 partner): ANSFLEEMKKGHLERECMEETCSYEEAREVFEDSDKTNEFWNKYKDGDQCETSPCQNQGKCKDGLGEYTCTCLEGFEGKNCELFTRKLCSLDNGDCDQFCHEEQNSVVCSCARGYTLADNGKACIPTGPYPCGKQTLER
Factor XIa, sequence (P03951 388-625): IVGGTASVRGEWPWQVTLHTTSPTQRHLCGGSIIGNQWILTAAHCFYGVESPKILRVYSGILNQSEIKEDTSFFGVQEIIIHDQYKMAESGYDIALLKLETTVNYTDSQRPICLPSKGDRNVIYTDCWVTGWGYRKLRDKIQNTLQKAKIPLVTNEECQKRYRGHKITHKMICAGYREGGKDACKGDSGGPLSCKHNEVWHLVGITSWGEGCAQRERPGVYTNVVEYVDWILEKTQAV
Factor XIa, sequence (P03951 19-387 partner): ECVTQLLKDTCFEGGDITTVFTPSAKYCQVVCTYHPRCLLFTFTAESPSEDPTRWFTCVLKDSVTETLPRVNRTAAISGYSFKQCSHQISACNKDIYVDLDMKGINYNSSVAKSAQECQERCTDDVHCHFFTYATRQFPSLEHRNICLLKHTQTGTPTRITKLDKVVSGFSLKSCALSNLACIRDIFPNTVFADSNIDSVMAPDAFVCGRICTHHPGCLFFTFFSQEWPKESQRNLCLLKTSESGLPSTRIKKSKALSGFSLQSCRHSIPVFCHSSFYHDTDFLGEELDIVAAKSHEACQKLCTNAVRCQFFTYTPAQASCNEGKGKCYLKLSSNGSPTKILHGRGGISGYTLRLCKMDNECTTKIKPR

On to `CC[C@@H](NC(=O)N1C(=O)[C@H](Cc2ccnc(N)c2)[C@H]1C(=O)N(C)c1cscn1)c1cccc(Cl)c1` [Compound 1-17, (2S,3R)-3-((2-aminopyridin-4-yl)methyl)-N2-(4-thiazolyl)-N1-((R)-1-(3-chlorophenyl)propyl)-N2-methyl-4-oxoazetidine-1,2-dicarboxamide], for which, at Factor XIa, the IC50 was less than 10 nM. Moreover, in data set [1], the fraction unbound at 4 h, 10 μM was 0.05 to 0.09. In data set [2], this compound returned a Papp A→B at 60 min, 10 μM of 11 to 30 ×10⁻⁶ cm/s and a Papp B→A at 40 min, 10 μM of 11 to 30 ×10⁻⁶ cm/s. Moreover, the “Ratio: FXa/FXIa” value at Factor Xa was “H (“H” indicates 101-1000)”.

On to `CC[C@@H](NC(=O)N1C(=O)[C@H](Cc2ccnc(N)c2)[C@H]1C(=O)N(C)c1cnn(C)c1)c1ccc(C)nc1` [Compound 1-18, (2S,3R)-3-((2-aminopyridin-4-yl)methyl)-N2-(1-methyl-1H-pyrazol-4-yl)-N1-((R)-1-(6-methylpyridin-3-yl)propyl)-N2-methyl-4-oxoazetidine-1,2-dicarboxamide], for which, at Factor XIa, the IC50 fell in the range of 10 to 100 nM. Further, the fraction unbound at 4 h, 10 μM in data set [1] is less than 0.5. Besides, in data set [2], the Papp A→B at 60 min, 10 μM was less than 10 ×10⁻⁶ cm/s and the Papp B→A at 40 min, 10 μM was less than 10 ×10⁻⁶ cm/s. Also, the “Ratio: FXa/FXIa” value at Factor Xa is “H (“H” indicates 101-1000)”.

As to `CC[C@@H](NC(=O)N1C(=O)[C@H](Cc2cc(C)nc(N)c2)[C@H]1C(=O)N(C)c1ccn(C)n1)c1cccc(C)c1` [Compound 1-22, (2S,3R)-3-((2-amino-6-methylpyridin-4-yl)methyl)-N2-(1-methyl-1H-pyrazol-3-yl)-N1-((R)-1-(3-methylphenyl)propyl)-N2-methyl-4-oxoazetidine-1,2-dicarboxamide], on Factor XIa, the IC50 is less than 10 nM. The fraction unbound at 4 h, 10 μM in data set [1] was 0.1 to 0.5. In data set [2], this compound came in with a Papp A→B at 60 min, 10 μM of less than 10 ×10⁻⁶ cm/s and a Papp B→A at 40 min, 10 μM of 11 to 30 ×10⁻⁶ cm/s. On Factor Xa, the “Ratio: FXa/FXIa” value is on record as “H (“H” indicates 101-1000)”.

Turning to `CN(C(=O)[C@@H]1[C@@H](Cc2ccnc(N)c2)C(=O)N1C(=O)N[C@@H](C1CCCCC1)C(F)(F)F)c1ccn(C)n1` [Compound 1-32, (2S,3R)-3-((2-aminopyridin-4-yl)methyl)-N2-(1-methyl-1H-pyrazol-3-yl)-N1-((S)-1-cyclohexyl-2,2,2-trifluoroethyl)-N2-methyl-4-oxoazetidine-1,2-dicarboxamide], the IC50 at Factor XIa is less than 10 nM. Also, in data set [1], the fraction unbound at 4 h, 10 μM lay within 0.05 to 0.09. In data set [2], this compound gave a Papp A→B at 60 min, 10 μM of 11 to 30 ×10⁻⁶ cm/s and a Papp B→A at 40 min, 10 μM of 11 to 30 ×10⁻⁶ cm/s. Also, the “Ratio: FXa/FXIa” value on Factor Xa is reported as “I (“I” indicates > 500)”.

For the compound `CC[C@@H](NC(=O)N1C(=O)[C@H](Cc2ccnc(N)c2)[C@H]1C(=O)N(C)c1nccn1C)c1cccc(Cl)c1` [Compound 1-35, (2S,3R)-3-((2-aminopyridin-4-yl)methyl)-N2-(1-methyl-1H-imidazol-2-yl)-N1-((R)-1-(3-chlorophenyl)propyl)-N2-methyl-4-oxoazetidine-1,2-dicarboxamide], the IC50 on Factor XIa is less than 10 nM. Besides, the fraction unbound at 4 h, 10 μM in data set [1] was 0.1 to 0.5. In addition, in data set [2], the Papp A→B at 60 min, 10 μM is less than 10 ×10⁻⁶ cm/s and the Papp B→A at 40 min, 10 μM is 31 to 50 ×10⁻⁶ cm/s. The “Ratio: FXa/FXIa” value at Factor Xa is given as “H (“H” indicates 101-1000)”.

For the compound `CC[C@@H](NC(=O)N1C(=O)[C@H](Cc2ccnc(NC)c2)[C@H]1C(=O)N(C)c1nccn1C)c1cccc(Cl)c1` [Compound 1-41, (2S,3R)-3-((2-methylaminopyridin-4-yl)methyl)-N2-(1-methyl-1H-imidazol-2-yl)-N1-((R)-1-(3-chlorophenyl)propyl)-N2-methyl-4-oxoazetidine-1,2-dicarboxamide], the IC50 at Factor XIa lay within 10 to 100 nM. Further, the fraction unbound at 4 h, 10 μM in data set [1] was 0.1 to 0.5. In data set [2], this compound registered a Papp A→B at 60 min, 10 μM of less than 10 ×10⁻⁶ cm/s and a Papp B→A at 40 min, 10 μM of 31 to 50 ×10⁻⁶ cm/s. Moreover, at Factor Xa, the “Ratio: FXa/FXIa” value was “I (“I” indicates > 500)”.

Regarding `CC[C@@H](NC(=O)N1C(=O)[C@H](Cc2cc(C)nc(N)c2)[C@H]1C(=O)N(C)c1nccn1C)c1cccc(Cl)c1` [Compound 1-43, (2S,3R)-3-((2-amino-6-methylpyridin-4-yl)methyl)-N2-(1-methyl-1H-imidazol-2-yl)-N1-((R)-1-(3-chlorophenyl)propyl)-N2-methyl-4-oxoazetidine-1,2-dicarboxamide], at Factor XIa, the IC50 was less than 10 nM. In addition, the fraction unbound at 4 h, 10 μM in data set [1] lay in the range of 0.1 to 0.5. Further, in data set [2], the apical-to-basolateral permeability (Papp A→B) at 60 min, 10 μM is less than 10 ×10⁻⁶ cm/s and the Papp B→A at 40 min, 10 μM is 11 to 30 ×10⁻⁶ cm/s. On Factor Xa, the “Ratio: FXa/FXIa” value is “I (“I” indicates > 500)”.

As to `CC[C@@H](NC(=O)N1C(=O)[C@H](Cc2cc(C)nc(NC)c2)[C@H]1C(=O)N(C)c1nccn1C)c1ccccc1` [Compound 1-45, (2S,3R)-3-((2-methylamino-6-methylpyridin-4-yl)methyl)-N2-(1-methyl-1H-imidazol-2-yl)-N1-((R)-1-phenylpropyl)-N2-methyl-4-oxoazetidine-1,2-dicarboxamide], the IC50 at Factor XIa was 10 to 100 nM. Also, in data set [1], the fraction unbound at 4 h, 10 μM was 0.1 to 0.5. In data set [2], this compound returned an apparent permeability from apical to basolateral (Papp A→B) at 60 min, 10 μM of 11 to 30 ×10⁻⁶ cm/s and a Papp B→A at 40 min, 10 μM of 31 to 50 ×10⁻⁶ cm/s. At Factor Xa, the “Ratio: FXa/FXIa” value is “I (“I” indicates > 500)”.

For the compound `CC[C@@H](NC(=O)N1C(=O)[C@H](Cc2cc(C)nc(NC)c2)[C@H]1C(=O)N(C)c1nccn1C)c1cccc(Cl)c1` [Compound 1-46, (2S,3R)-3-((2-methylamino-6-methylpyridin-4-yl)methyl)-N2-(1-methyl-1H-imidazol-2-yl)-N1-((R)-1-(3-chlorophenyl)propyl)-N2-methyl-4-oxoazetidine-1,2-dicarboxamide], the IC50 at Factor XIa is less than 10 nM. For the same compound, in data set [1], the fraction unbound at 4 h, 10 μM lay in the range of 0.05 to 0.09. In data set [2], the Papp A→B at 60 min, 10 μM fell in the range of 11 to 30 ×10⁻⁶ cm/s and the Papp B→A at 40 min, 10 μM fell in the range of 11 to 30 ×10⁻⁶ cm/s. Besides, the “Ratio: FXa/FXIa” value on Factor Xa was “I (“I” indicates > 500)”.

In the case of `CC[C@@H](NC(=O)N1C(=O)[C@H](Cc2ccnc(N)c2)[C@H]1C(=O)N(C)c1ccn(C)n1)C1CCCCC1` [Compound 1-47, (2S,3R)-3-((2-aminopyridin-4-yl)methyl)-N2-(1-methyl-1H-pyrazol-3-yl)-N1-((R)-1-cyclohexylpropyl)-N2-methyl-4-oxoazetidine-1,2-dicarboxamide], the IC50 at Factor XIa was less than 10 nM. In addition, the fraction unbound at 4 h, 10 μM in data set [1] lay in the range of 0.05 to 0.09. Also, in data set [2], the Papp A→B at 60 min, 10 μM is less than 10 ×10⁻⁶ cm/s and the basolateral-to-apical permeability (Papp B→A) at 40 min, 10 μM fell in the range of 31 to 50 ×10⁻⁶ cm/s. Moreover, the “Ratio: FXa/FXIa” value on Factor Xa is listed as “I (“I” indicates > 500)”.

For the compound `C[C@@H](NC(=O)N1C(=O)[C@H](Cc2ccnc(N)c2)[C@H]1C(=O)N(C)c1ccn(C)n1)C1CCCCC1` [Compound 1-50, (2S,3R)-3-((2-aminopyridin-4-yl)methyl)-N2-(1-methyl-1H-pyrazol-3-yl)-N1-((R)-1-cyclohexylethyl)-N2-methyl-4-oxoazetidine-1,2-dicarboxamide], at Factor XIa, the IC50 fell in the range of 10 to 100 nM. In addition, the fraction unbound at 4 h, 10 μM in data set [1] lay in the range of 0.1 to 0.5. In data set [2], this compound gave a Papp A→B at 60 min, 10 μM of less than 10 ×10⁻⁶ cm/s and a Papp B→A at 40 min, 10 μM of 31 to 50 ×10⁻⁶ cm/s. Besides, the “Ratio: FXa/FXIa” value at Factor Xa is “I (“I” indicates > 500)”.

As for `CC[C@@H](NC(=O)N1C(=O)[C@H](Cc2cc(C)nc(N)c2)[C@H]1C(=O)N(C)c1nccn1C)c1ccccc1` [Compound 1-51, (2S,3R)-3-((2-amino-6-methylpyridin-4-yl)methyl)-N2-(1-methyl-1H-imidazol-2-yl)-N1-((R)-1-phenylpropyl)-N2-methyl-4-oxoazetidine-1,2-dicarboxamide], the 50% inhibitory concentration (IC50) on Factor XIa was less than 10 nM. Further, in data set [1], the fraction unbound at 4 h, 10 μM was in the range of 0.1 to 0.5. In data set [2], the Papp A→B at 60 min, 10 μM was less than 10 ×10⁻⁶ cm/s and the Papp B→A at 40 min, 10 μM lay within 31 to 50 ×10⁻⁶ cm/s. Besides, the “Ratio: FXa/FXIa” value on Factor Xa is recorded as “I (“I” indicates > 500)”.

The record behind these values is patent publication US11691962B2 (eXIthera Pharmaceuticals, Inc., priority 2018, dated 2023).
